Experiments:
[1] = target: T1, AKR1B1 (aldose reductase) (Homo sapiens, UniProt P15121); test: aldose reductase inhibitor screening kit (NADPH consumption at […] nm); supported by CETSA in Hs578T and SKOV3 cells; type: biochemical
[2] = target: T1, AKR1B1 (aldose reductase); test: aldose reductase inhibitor screening kit, NADPH consumption at […] nm; type: biochemical

IC50 [1] | IC50 [2] | SMILES
9.72 ± 0.18 µM | – | COc1ccc(C[C@H]2COC(=O)[C@@H]2Cc2ccc3c(c2)OCO3)cc1OC (racemic) [(±)KU, trans-(±)-kusunokinin]
– | 13.7 µM | COc1ccc(C[C@H]2COC(=O)[C@@H]2Cc2ccc(O[C@@H]3O[C@H](CO)[C@@H](O)[C@H](O)[C@H]3O)c(OC)c2)cc1OC [(−)AR, trans-(−)-arctiin]

Reference: PMC9774946, “Trans-(±)-Kusunokinin Binding to AKR1B1 Inhibits Oxidative Stress and Proteins Involved in Migration in Aggressive Breast Cancer” (Antioxidants, 2022)
